Consider 24 compounds from patent US20230049231A1 (priority 2019, published 2023).

Structures are written as SMILES. A value given as a limit tells only on which side of the number the result lay.

One assay concerns the target T1, hERG channel (Homo sapiens, UniProt Q12809).
T1 construct: expressed in transfected cells
Put plainly: hERG electrophysiology, automated whole-cell patch clamp (Patchliner). The assay is classed as cell-based. In outline: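 Automated whole-cell patch clamp on CHO-K1 cells stably expressing hERG; 30 nM–100 μM applied cumulatively to the same cell, ≤0.3% DMSO. Pulses: −80 mV holding, +20 mV for 300 ms, −50 mV for 300 ms tail, 0.3 Hz, 70 per concentration. Last-pulse AUC and peak, normalized to control, were fitted to a Hill equation for IC50.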
(Block of hERG is tested as a sign of cardiac risk.)

Another assay addresses T2, Kv1.3 potassium channel (Homo sapiens, UniProt P22001).
T2 construct: expressed in transfected cells
Put plainly: Kv1.3 potassium channel blocker activity, automated whole-cell patch clamp (Patchliner). In kind it is cell-based. The method in brief: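 IC50 came from Hill-equation fits of peak and AUC currents from the final pulse at each concentration, normalized to compound-free control. Compounds applied consecutively at 30 nM to 100 μM (up to 0.3% DMSO) to Kv1.3-expressing CHO-K1 cells, P/4 leak subtraction. Pulses were +40 mV, 100 ms, from −90 mV holding, at 0.1 Hz on Patchliner.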

Setting [1] is: hERG channel, whole-cell patch clamp.
Setting [2] is: Kv1.3 potassium channel, whole-cell patch clamp.
Where [3] appears, read: CHO-K1 cells stably expressing hERG, +20 mV 300 ms, -50 mV 300 ms tail current, 0.3 Hz.
[4] abbreviates: CHO-K1 cells stably expressing Kv1.3, 100 ms pulses from -90 mV to +40 mV, 0.1 Hz.

T1 sequence (Q12809 whole entry): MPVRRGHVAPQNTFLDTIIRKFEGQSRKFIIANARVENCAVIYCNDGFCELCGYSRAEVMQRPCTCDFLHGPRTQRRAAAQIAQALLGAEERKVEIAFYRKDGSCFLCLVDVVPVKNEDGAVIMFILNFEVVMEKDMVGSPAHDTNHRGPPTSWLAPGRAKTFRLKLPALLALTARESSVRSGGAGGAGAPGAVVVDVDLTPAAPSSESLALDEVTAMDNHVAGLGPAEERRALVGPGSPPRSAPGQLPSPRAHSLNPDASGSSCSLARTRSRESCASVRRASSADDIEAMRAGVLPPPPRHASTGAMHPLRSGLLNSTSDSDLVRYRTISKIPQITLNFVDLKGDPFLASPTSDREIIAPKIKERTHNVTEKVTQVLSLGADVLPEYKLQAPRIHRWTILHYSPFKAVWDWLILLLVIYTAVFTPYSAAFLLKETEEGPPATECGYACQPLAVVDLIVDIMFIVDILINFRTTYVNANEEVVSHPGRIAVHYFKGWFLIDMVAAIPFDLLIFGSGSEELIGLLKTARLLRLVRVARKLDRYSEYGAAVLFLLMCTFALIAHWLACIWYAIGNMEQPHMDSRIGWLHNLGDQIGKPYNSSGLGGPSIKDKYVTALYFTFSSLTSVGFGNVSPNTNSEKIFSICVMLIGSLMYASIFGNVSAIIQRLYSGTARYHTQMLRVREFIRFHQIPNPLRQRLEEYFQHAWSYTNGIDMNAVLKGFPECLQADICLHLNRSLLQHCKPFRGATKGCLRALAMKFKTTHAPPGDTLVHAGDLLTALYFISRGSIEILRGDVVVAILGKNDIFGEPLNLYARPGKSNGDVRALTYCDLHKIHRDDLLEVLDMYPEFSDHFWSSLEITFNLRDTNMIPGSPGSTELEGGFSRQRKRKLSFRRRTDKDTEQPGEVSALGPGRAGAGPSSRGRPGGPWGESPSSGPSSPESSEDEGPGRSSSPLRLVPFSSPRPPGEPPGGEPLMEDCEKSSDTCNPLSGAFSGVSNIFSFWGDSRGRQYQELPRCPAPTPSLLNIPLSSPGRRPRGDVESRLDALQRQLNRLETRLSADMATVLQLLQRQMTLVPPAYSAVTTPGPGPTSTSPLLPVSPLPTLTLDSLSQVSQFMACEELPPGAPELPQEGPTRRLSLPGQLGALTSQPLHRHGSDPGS
T2 sequence (P22001 whole entry): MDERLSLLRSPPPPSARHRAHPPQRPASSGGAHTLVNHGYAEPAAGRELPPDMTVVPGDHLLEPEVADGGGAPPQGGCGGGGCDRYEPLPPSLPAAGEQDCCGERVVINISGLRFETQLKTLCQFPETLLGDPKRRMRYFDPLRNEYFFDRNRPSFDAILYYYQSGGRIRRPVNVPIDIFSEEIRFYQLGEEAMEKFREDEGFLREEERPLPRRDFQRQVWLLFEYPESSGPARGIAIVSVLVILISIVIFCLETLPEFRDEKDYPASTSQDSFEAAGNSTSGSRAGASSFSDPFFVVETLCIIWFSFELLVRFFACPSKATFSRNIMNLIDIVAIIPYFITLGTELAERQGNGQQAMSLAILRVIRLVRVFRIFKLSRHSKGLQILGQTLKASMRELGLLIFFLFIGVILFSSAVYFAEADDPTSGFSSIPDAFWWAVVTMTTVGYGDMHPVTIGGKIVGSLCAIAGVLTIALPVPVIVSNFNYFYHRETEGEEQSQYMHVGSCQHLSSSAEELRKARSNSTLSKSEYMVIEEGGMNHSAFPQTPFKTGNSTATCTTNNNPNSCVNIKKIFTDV

Consider `O=C([C@@H]1OCC[C@@H]1O)N1CC(=O)N2C[C@@H](c3c(O)ccc(Cl)c3Cl)C[C@H]2C1` [Compound 74, (7R,8aS)-7-(2,3-dichloro-6-hydroxyphenyl)-2-[(2R,3S)-3-hydroxyoxolane-2-carbonyl]-hexahydropyrrolo [1,2-a]pyrazin-4-one], for which the IC50 (usually the concentration that gives 50% inhibition) against hERG channel (setting [1]) was more than 30 µM; against Kv1.3 potassium channel (setting [2]), less than 1 µM.
`O=C([C@H](O)CO)N1CC(=O)N2CC[C@H](c3c(O)ccc(Cl)c3Cl)C[C@@H]2C1` (relative stereo) [Compound 10, (8S,9aR)-rel-8-(2,3-dichloro-6-hydroxyphenyl)-2-[(2R)-2,3-dihydroxypropanoyl]-hexahydro-1H-pyrido[1,2-a]pyrazin-4-one]: the 50% inhibitory concentration (IC50) was more than 30 µM on hERG channel (setting [3]) and less than 1 µM against Kv1.3 potassium channel (setting [4]).
Regarding `C[C@H]1CC(=O)N2C[C@@H](c3c(O)ccc(Cl)c3Cl)C[C@H]2CN1C(=O)CO` [Compound 94, (3S,8R,9aS)-8-(2,3-dichloro-6-hydroxyphenyl)-2-(2-hydroxyacetyl)-3-methyl-hexahydro-1H-pyrrolo[1,2-a][1,4]diazepin-5-one], the IC50 on hERG channel (setting [1]) is more than 30 µM; on Kv1.3 potassium channel (setting [2]), less than 1 µM.
The corresponding values for `O=C(C[C@@H](O)C1CC1)N1CC(=O)N2C[C@@H](c3c(O)ccc(Cl)c3Cl)C[C@H]2C1` [Compound 72, (7R,8aS)-2-[(3R)-3-cyclopropyl-3-hydroxypropanoyl]-7-(2,3-dichloro-6-hydroxyphenyl)-hexahydropyrrolo [1,2-a]pyrazin-4-one] are less than 30 µM and less than 1 µM.
For `O=C1CN([C@H]2C[C@](O)(CO)C2)C[C@@H]2C[C@H](c3c(O)ccc(Cl)c3Cl)CN12` (single isomer, unassigned; isomer 1) [Compound 163], the results for the IC50 on hERG channel (setting [1]) and against Kv1.3 potassium channel (setting [2]) were more than 30 µM and less than 1 µM, respectively.
In the case of `C[C@]1(CO)OC(=O)N2C[C@@H](c3c(O)ccc(Cl)c3Cl)C[C@H]21` (single isomer, unassigned) [Compound 264], the IC50 is more than 30 µM against hERG channel (setting [1]) and less than 1 µM against Kv1.3 potassium channel (setting [2]).
With `O=C(CO)N1CC(=O)N2CC(c3c(O)ccc(Cl)c3Cl)C[C@H]2C1` (stereo partly drawn) [Compound 24, (8aS)-7-(2,3-dichloro-6-hydroxyphenyl)-2-(2-hydroxyacetyl)-hexahydropyrrolo[1,2-a]pyrazin-4-one], the IC50 against hERG channel (setting [3]) is more than 30 µM; on Kv1.3 potassium channel (setting [4]), less than 1 µM.
Regarding `CC(=O)NCC1OC(=O)N2C[C@@H](c3c(O)ccc(Cl)c3Cl)C[C@@H]12` (stereo partly drawn) [Compound 276, N-[[(6R,7aS)-6-(2,3-dichloro-6-hydroxyphenyl)-3-oxo-tetrahydro-1H-pyrrolo[1,2-c][1,3]oxazol-1-yl]methyl]acetamide], the values for the IC50 on hERG channel (setting [1]) and against Kv1.3 potassium channel (setting [2]) were more than 30 µM and less than 1 µM, respectively.
For the compound `CCC(=O)N1CC(=O)N2C[C@@H](c3c(O)ccc(Cl)c3Cl)C[C@H]2C1` [Compound 8, (7R,8aS)-7-(2,3-dichloro-6-hydroxyphenyl)-2-pro-pionylhexahydropyrrolo [1,2-a]pyrazin-4(1H)-one], the IC50 on hERG channel (setting [3]) is less than 30 µM; on Kv1.3 potassium channel (setting [4]), less than 1 µM.
Take `O=C1CN(CC(O)CO)C[C@@H]2C[C@H](c3c(O)ccc(Cl)c3Cl)CN12` (stereo partly drawn) [Compound 112, (7R,8aS)-7-(2,3-dichloro-6-hydroxyphenyl)-2-(2,3-dihydroxypropyl)-hexahydropyrrolo [l,2-a]pyrazin-4-one]: the IC50 against hERG channel (setting [1]) was more than 30 µM; on Kv1.3 potassium channel (setting [2]), less than 1 µM.
As to `COC(CO)CN1CC(=O)N2C[C@@H](c3c(O)ccc(Cl)c3Cl)C[C@H]2C1` (stereo partly drawn) [Compound 156, (7R,8aS)-7-(2,3-dichloro-6-hydroxyphenyl)-2-(3-hydroxy-2-methoxypropyl) hexahydropyrrolo[1,2-a]pyrazin-4-one], the IC50 was more than 30 µM at hERG channel (setting [1]) and less than 1 µM at Kv1.3 potassium channel (setting [2]).
`O=C1CN(C[C@@H](O)CO)C[C@@H]2C[C@H](c3c(O)ccc(Cl)c3Cl)CN12` (single isomer, unassigned) [Compound 114]: the IC50 at hERG channel (setting [1]) is more than 30 µM; at Kv1.3 potassium channel (setting [2]), less than 1 µM.
Regarding `O=C(NC1CNC1)[C@H]1CC(=O)N2C[C@@H](c3c(O)ccc(Cl)c3Cl)C[C@H]2C1` (single isomer, unassigned) [Compound 235], the IC50 against hERG channel (setting [1]) is more than 30 µM; against Kv1.3 potassium channel (setting [2]), less than 1 µM.
The corresponding values for `O=C(C1OC(=O)N2C[C@@H](c3c(O)ccc(Cl)c3Cl)C[C@@H]12)N1CCNCC1` (stereo partly drawn) [Compound 289, (6R,7aS)-6-(2,3-dichloro-6-hydroxyphenyl)-1-(piperazine-1-carbonyl)-tetrahydro-1H-pyrrolo[1,2-c][1,3]oxazol-3-one] are more than 30 µM and less than 1 µM.
The corresponding values for `CN(C)CC1CC(=O)N2C[C@@H](c3c(O)ccc(Cl)c3Cl)C[C@H]2C1` (stereo partly drawn) [Compound 240, (2R,8aR)-2-(2,3-dichloro-6-hydroxyphenyl)-7-[(dimethylamino)methyl]-hexahydro-1H-indolizin-5-one] are less than 10 µM and less than 1 µM.
`C[C@@]1(CO)OC(=O)N2C[C@@H](c3c(O)ccc(Cl)c3Cl)C[C@H]21` (single isomer, unassigned) [Compound 265]: the IC50 on hERG channel (setting [1]) is more than 30 µM; against Kv1.3 potassium channel (setting [2]), less than 1 µM.
Regarding `NC(=O)CC1OC[C@@H]2C[C@H](c3c(O)ccc(Cl)c3Cl)CCN2C1=O` (stereo partly drawn) [Compound 187, 2-[(8R,9aS)-8-(2,3-dichloro-6-hydroxyphenyl)-4-oxo-hexahydro-1H-pyrido[2,1-c][1,4]oxazin-3-yl]acetamide], the IC50 on hERG channel (setting [1]) is more than 30 µM; on Kv1.3 potassium channel (setting [2]) it was less than 1 µM.
The corresponding values for `O=C1C[C@H](NCCO)C[C@@H]2C[C@H](c3c(O)ccc(Cl)c3Cl)CN12` (single isomer, unassigned) [Compound 203] are more than 30 µM and less than 1 µM.
The corresponding values for `CC1(O)CN(C(=O)N2CC(=O)N3C[C@@H](c4c(O)ccc(Cl)c4Cl)C[C@H]3C2)C1` [Compound 100, (7R,8aS)-7-(2,3-dichloro-6-hydroxyphenyl)-2-(3-hydroxy-3-methylazetidine-1-carbonyl)-hexahydropyrro[1,2-a]pyrazine-4-one] are more than 30 µM and less than 1 µM.
For the compound `COC[C@H](CO)N1CC(=O)N2C[C@@H](c3c(O)ccc(Cl)c3Cl)C[C@H]2C1` (single isomer, unassigned) [Compound 118], the IC50 against hERG channel (setting [1]) is more than 30 µM; against Kv1.3 potassium channel (setting [2]), less than 1 µM.
Consider `O=C1CN(c2cc(CO)ccn2)C[C@@H]2C[C@H](c3c(O)ccc(Cl)c3Cl)CN12` [Compound 173], for which the IC50 at hERG channel (setting [1]) was less than 30 µM; at Kv1.3 potassium channel (setting [2]) it was less than 1 µM.
Regarding `C[C@@H]1CN(C(=O)CO)C[C@@H]2C[C@H](c3c(O)ccc(Cl)c3Cl)CN2C1=O` (single isomer, unassigned; isomer 1) [Compound 91], the values for the IC50 against hERG channel (setting [1]) and against Kv1.3 potassium channel (setting [2]) were more than 30 µM and less than 1 µM, respectively.
As for `Nc1ccnc(N2CC(=O)N3C[C@@H](c4c(O)ccc(Cl)c4Cl)C[C@H]3C2)c1` [Compound 171, (7R,8aS)-2-(4-aminopyridin-2-yl)-7-(2,3-dichloro-6-hydroxyphenyl)-hexahydropyrrolo[1,2-a]pyrazin-4-one], the IC50 is less than 10 µM at hERG channel (setting [1]) and less than 1 µM on Kv1.3 potassium channel (setting [2]).
In the case of `O=C1OC[C@@H]2C[C@H](c3c(O)ccc(Cl)c3Cl)CN12` [Compound 251, (6R,7aS)-6-(2,3-dichloro-6-hydroxyphenyl)-tetrahydro-1H-pyrrolo[1,2-c][1,3]oxazol-3-one], the concentration for half-maximal inhibition (IC50) is less than 30 µM on hERG channel (setting [1]) and less than 1 µM at Kv1.3 potassium channel (setting [2]).
